Experimental findings from patent US20040018235A1, “Controlled release pharmaceutical composition” (KOWA CO., LTD, priority 2002, published 2004) are described below.

The series is described as follows: Absorption sites of pitavastatin in rat (in situ loop test). The format is in vivo.

With `O=C(O)C[C@H](O)C[C@H](O)/C=C/c1c(C2CC2)nc2ccccc2c1-c1ccc(F)cc1` [pitavastatin, (+)-(3R,5S,6E)-7-[2-cyclopropyl-4-(4-fluorophenyl)-3-quinolyl]-3,5-dihydroxy-6-heptenoic acid], the Absorption percentage is, setting by setting: (duodenum, 0.5 h) 65.9 ± 2.1%; (duodenum, 1 h) 60.3 ± 10.2%; (large intestine, 0.5 h) 34.4 ± 3.7%; (large intestine, 1 h) 51.6 ± 6.7%; (small intestine, 0.5 h) 23.1 ± 3.8%; (small intestine, 1 h) 21.3 ± 3.0%. Further, the Absorption percentage runs as follows: (stomach, 0.5 h) 8.6 ± 1.1%; (stomach, 1 h) 14.4 ± 1.6%. Further, the “Percentage of absorption in the small intestine relative to that in the duodenum” value (see Table 1) was “about one-third”.
